{"source": "patent US20220313719A1", "about": "“METHODS OF TREATING DISEASES ASSOCIATED WITH CHANGES IN PLATELET COUNTS USING PROTEIN KINASE A ACTIVATOR AND INHIBITOR” (Soochow university, priority 2017, published 2022)", "key": {"washed platelets [1]": {"test_system": "washed platelets", "assay": "Mitochondrial membrane potential (ΔΨm) detection with JC-1 by flow cytometer", "format": "cell-based, human", "experimental": "When washed platelets were prepared, venous blood from healthy volunteers was anticoagulated with ACD (2.5% sodium citrate, 2.0% glucose, and 1.5% citric acid) at 1:7, platelet-rich plasma (PRP) was obtained by centrifugation at 1300 rpm for 20 min, the PRP was centrifuged at 1500 g for 2 min, and the supernatant was discarded. The precipitated platelets were suspended, centrifuged and washed with CGS buffer (0.123 M sodium chloride, 0.033 M glucose, 0.013 M sodium citrate, pH 6.5). […] The platelets were counted by a counter. […]\nWashed platelets (3×10^8/mL) were incubated with different concentrations of H89 (12.5 μM, 25 μM, 37.5 μM and 50 μM) or negative control (DMSO) for 10 min at room temperature, and then platelet ΔΨm was determined using the lipophilic cationic dye JC-1. JC-1 with a final concentration of 2 μg/ml was added to the treated platelets, and the platelets were incubated at 37° C. for 20 min in the dark, and detected by using a flow cytometer. […] The JC-1 monomer (λex 514 nm, λem 529 nm) and the polymer (λex 585 nm, λem 590 nm) were determined by calculating the proportion of flow red fluorescence (JC-1 polymer) or green fluorescence (JC-1 monomer). […]"}, "caspase-3": {"test_system": "caspase-3", "assay": "Western blot of caspase-3, gelsolin and caspase-3 activity in platelets", "format": "cell-based, human", "conditions": "different concentrations of H89, 22° C., 30 min", "experimental": "Washed platelets were incubated with different concentrations of H89 (25 μM, 50 μM, and 100 μM) or negative control (DMSO) at room temperature for 10 min. The reaction was stopped by the addition of 2× cell lysis buffer (containing 2 mM PMSF, 2 mM NaF, 2 mM Na3VO4, and protease inhibitor), and the platelets were lysed on ice, and sampled. The samples were tested for expression of the corresponding proteins by Western blotting.\n(§1) Different concentrations of H89 (0, 12.5, 25, 37.5, and 50 μM) were applied to washed platelets at 22° C. for 160 min, and mitochondrial transmembrane potential depolarization and PS exposure of platelets were detected by using the flow cytometer. The experiments were repeated four times. The washed platelets were pretreated with different concentrations of H89 at 22° C. for 30 min. At the same time, DMSO and A23187 treated negative control group and positive control group platelets were established. Caspase-3, gelsolin protein expression and caspase-3 activity in platelets were detected by Western blot. The FITC-labeled anti-CD41 antibody was mixed with the pre-treated platelets at a ratio of 1:10, and incubated at room temperature for 10 min in the dark. Analyzing the platelet size scatter plot, the decrease in the CD41 positive cell count represents a decrease in the platelet count. […]"}, "washed platelets [2]": {"test_system": "washed platelets", "assay": "Platelet shrinkage experiment (FSC of GPIIb/IIIa positive platelets)", "format": "cell-based, human", "experimental": "Washed platelets were incubated with different concentrations of H89 (12.5 μM, 25 μM, 37.5 μM and 50 μM) or negative control (DMSO) at room temperature for 10 min. The platelets and the SZ21 antibody were then incubated for 30 min at room temperature. The platelets were centrifuged, resuspended with the FITC-labeled goat-anti-mouse antibody, and incubated for 30 min at room temperature in the dark. The platelets were collected by using a flow cytometer, and platelet scatter plots collected by FSC-FL1 were used to analyze the platelets. The degree of shrinkage of the platelets was evaluated by analyzing the change in FSC and evaluating the degree of FSC reduction in GPIIb/IIIa positive cells. A23187 was used as a positive control. DMSO was used as a negative control.\nas §1, with “blot.” for “blot. The FITC-labeled anti-CD41 antibody was mixed with the pre-treated platelets at a ratio of 1:10, and incubated at room temperature for 10 min in the dark. Analyzing the platelet size scatter plot, the decrease in the CD41 positive cell count represents a decrease in the platelet count.”"}, "washed platelets [3]": {"test_system": "washed platelets", "assay": "Scanning electron microscopy of platelet morphology", "format": "cell-based, human", "conditions": "22° C., 160 min", "experimental": "The washed platelets were fixed with 2.5% […] at 4° C. overnight. The washed platelets were sent to a scanning electron microscope sample room for sample preparation. Morphological analysis of the platelets was carried out by the scanning electron microscope (Japan Hitachi, 5-4700). Five different fields of view were selected for observation and photographing.\nas §1"}, "BAD position 155": {"test_system": "BAD position 155", "assay": "Western blot / co-immunoprecipitation of BAD Ser155 phosphorylation and Bel-xL in platelets", "format": "cell-based, human", "conditions": "37.5 uM H89 or 10 uM forskin, 160 min", "experimental": "Next, we further explored the mechanism by which PKA inhibits induction of platelet apoptosis. At room temperature, 3×10^8/mL washed platelets were incubated with different concentration gradients of H89 or the DMSO internal reference for 160 min. The platelets were lysed on ice for 30 min with an equal volume of lysis buffer. The product was electrophoretically separated by SDS-PAGE to obtain protein fragments of different sizes. The protein fragments were blocked in skim milk powder for one hour and then the primary antibody was added for incubation. […] The washed platelets were pretreated with 37.5 uM H89, 10 uM forskin and the DMSO internal reference respectively for 160 min at room temperature. Cytoplasmic proteins (FIG. 8B) and mitochondrial proteins (FIG. 8D) were extracted from the platelets, respectively. The interest proteins were detected by western blot. The amount of the interest proteins was analyzed by Image J software. Four experiments were counted to show the results in mean±standard deviation. After lysis, the pre-treated platelets were centrifuged at 17,000 g for 10 min at 4° C. The obtained supernatant was incubated with the corresponding antibody for precipitation overnight, and after incubation with protein A/G+ agarose beads at 4° C. for 2 hours, the beads were eluted for protein hybridization (FIG. 8C)."}, "stored platelets": {"test_system": "stored platelets", "assay": "Clearance of stored platelets in the body", "conditions": "in vivo", "source_text": "In addition to apoptosis, there are other changes in storage damage that result in the clearance of stored platelets in the body. Therefore, we investigated whether PKA activation protects platelet from apoptosis while preventing the stored platelets from being cleared."}, "washed platelets [4]": {"test_system": "washed platelets", "assay": "Fasudil platelet apoptosis (ΔΨm and PS exposure) with thrombin", "format": "cell-based, human", "conditions": "10 min room temperature, then thrombin 0.1 U/ml 30 min 37° C.", "experimental": "Washed platelets (3×10^8/mL) were incubated with different Fasudil or negative control (normal saline) for 10 min at room temperature. Thereafter, except the negative control, thrombin (0.1 U/ml) was added to each group, and incubation was carried out for 30 min at 37° C. Platelet ΔΨm was measured using the lipophilic cationic dye JC-1. JC-1 with a final concentration of 2 μg/ml was added to the treated platelets, and the platelets were incubated at 37° C. for 5 min in the dark, and detected by using the flow cytometer. […] The JC-1 monomer (λex 514 nm, λem 529 nm) and the polymer (λex 585 nm, λem 590 nm) were determined by calculating the proportion of flow red fluorescence (JC-1 polymer) or green fluorescence (JC-1 monomer) (FIG. 22).\nWashed platelets (3×10^8/mL) were incubated with different Fasudil or negative control (normal saline) for 10 min at room temperature. Thereafter, except the negative control, thrombin (0.1 U/ml) was added to each group, and incubation was carried out for 30 min at 37° C. After that, Annexin V buffer, treated platelets, and Annexin V-FITC in a ratio of 50:10:1 were incubated for 15 min at room temperature in the dark, and detected by using the flow cytometer (FIG. 22)."}, "platelets": {"test_system": "platelets", "assay": "Anti-platelet antibody R300-induced platelet clearance (ITP mouse model)", "format": "in vivo, ICR mice", "conditions": "for platelet counts versus NS group at 30 min: injection 10 min before R300 (0.1 μg/g), PGE2 20 ng/ml, cAMP 12 μg/ml, P<0.05", "method": "After 10 min, the anti-platelet antibody R300 (0.2 μg/kg) was intraperitoneally injected into the mice, and the whole blood was collected from the orbital vein at different time points. The platelets were counted by a Sysmex XP-100 blood analyzer, 6 mice were used per group, and the results were expressed as mean±standard deviation (FIG. 12C).\n12 ICR mice were divided into two groups with 6 mice in each group. The 6 mice in the experimental group were injected with milrinone (1 mg/kg), and the 6 mice in the control group were injected with normal saline (NS). 10 min after the mice were injected with the milrinone (1 mg/kg) (or NS) in the tail vein, the mice were intraperitoneally injected with the R300 antibody (0.1 mg/kg). Blood sampling and counting were then carried out at each time point.\nFirst, the mice were sampled for blood as a reference value. Then the control group and the test group were injected with 0.9% NS and PGE2 (20 ng/ml), respectively. After 10 min, R300 (0.1 μg/g) was injected. Blood sampling and counting were then carried out at 30 min, 2 h, 4 h, 6 h, and 24 h.\nFirst, the mice were sampled for blood as a reference value. Then the control group and the test group were injected with 0.9% NS and cAMP (12 μg/ml), respectively. After 10 min, R300 (0.1 μg/g) was injected. Blood sampling and counting were then carried out at 30 min, 2 h, 4 h, 6 h, and 24 h.\nFirst, the mice were sampled for blood as a reference value. Then the control group and the test group were injected with 0.9% NS and aminophylline (0.24 mmol/L), respectively. After 10 min, R300 (0.1 μg/g) was injected. Then blood sampling and counting were carried out at 30 min, 2 h, 4 h, 6 h, and 24 h (FIG. 20)."}}}
{"compound": "O=S(=O)(NCCNCC=Cc1ccc(Br)cc1)c1cccc2cnccc12", "note": "[H89, N-[2-((p-bromocinnamyl)amino)ethyl]-5-isoquinoline sulfonamide]", "values": [{"measurement": "ΔΨm depolarization in platelets, time dependence", "setting": "washed platelets [1]", "value": "in a time-dependent manner"}, {"measurement": "mitochondrial membrane potential (ΔΨm) depolarization in platelets, dose dependence", "setting": "washed platelets [1]; H89 0, 12.5, 25, 37.5, 50 μM, 22° C., 160 min", "value": "dose-dependently induced"}, {"measurement": "activation of caspase-3", "setting": "caspase-3", "value": "dose-dependently induced"}, {"measurement": "digestion of caspase-3 substrate gelsolin", "setting": "caspase-3", "value": "dose-dependently induced"}, {"measurement": "forward scatter (FSC) of GPIIb/IIIa-positive platelets (shrinkage)", "setting": "washed platelets [2]", "value": "decrease"}, {"measurement": "typical apoptotic morphological changes (membrane vesicles, pseudopods, shrinkage, degranulation)", "setting": "washed platelets [3]", "value": "dose-dependently induce"}, {"measurement": "Bel-xL protein on the mitochondrial membrane", "setting": "BAD position 155", "value": "decrease"}, {"measurement": "co-immunoprecipitation of Bel-xL and BAD", "setting": "BAD position 155", "value": "significantly reduced"}, {"measurement": "phosphorylation of serine at the BAD position 155", "setting": "BAD position 155; room temperature", "value": "decreased"}, {"measurement": "clearance of stored platelets by the body", "setting": "stored platelets", "value": "speeds up the clearance"}]}
{"compound": "O=S(=O)(c1cccc2cnccc12)N1CCCNCC1", "note": "[Fasudil]", "values": [{"measurement": "platelet apoptosis", "setting": "washed platelets [4]", "value": "can Promote"}]}
{"compound": "Cc1[nH]c(=O)c(C#N)cc1-c1ccncc1", "note": "[milrinone]", "values": [{"measurement": "platelet counts in peripheral blood of mice", "setting": "platelets; milrinone 1 mg/kg tail vein, R300 0.1 mg/kg i.p. after 10 min, vs NS", "value": "significantly increased"}]}
{"compound": "Nc1ncnc2c1ncn2[C@@H]1O[C@@H]2COP(=O)(O)O[C@H]2[C@H]1O", "note": "[cAMP, cyclic adenosine monophosphate]", "values": [{"measurement": "platelet counts versus NS group at 30 min", "setting": "platelets", "value": "has statistic difference"}]}
{"compound": "CCCCC[C@H](O)/C=C/[C@H]1[C@H](O)CC(=O)[C@@H]1C/C=C\\CCCC(=O)O", "note": "[PGE2, prostaglandin E2]", "values": [{"measurement": "platelet counts versus NS group at 30 min", "setting": "platelets", "value": "has statistic difference"}]}
{"compound": "Cn1c(=O)c2[nH]cnc2n(C)c1=O", "note": "[Aminophylline, aminophylline]", "values": [{"measurement": "platelet clearance in vivo", "setting": "platelets; aminophylline 0.24 mmol/L, R300 0.1 μg/g after 10 min", "value": "can Inhibit"}]}
